#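 Protocol summary: plate cells (96-well), add compound at 5 concentrations, incubate 48 h, interpolate endpoints linearly. Here, GI50 denotes the concentration required for 50% inhibition of growth.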 The source made the active and inactive calls. Rule as the data show it: active = GI50 up to about 1.1 µM and inactive = higher.
# Key:
# Test in all cases: growth of human tumour cells (NCI), 48 h
# 786-0 = test system: 786-0
# A549 = test system: A549
# EKVX = test system: EKVX
# IGROV-1 = test system: IGROV-1
# K562 = test system: K562
# MCF7 = test system: MCF7
# MDA-MB-231 = test system: MDA-MB-231
# NCI-H226 = test system: NCI-H226
# NCI-H23 = test system: NCI-H23
# NCI-H522 = test system: NCI-H522
# RPMI-8226 = test system: RPMI-8226
# SK-OV-3 = test system: SK-OV-3
# SR = test system: SR
# SW-620 = test system: SW-620
# UACC-62 = test system: UACC-62
# MDA-N = test system: MDA-N
# HOP-92 = test system: HOP-92
# Malme-3M = test system: Malme-3M
Structure (SMILES),GI50 (786-0),GI50 (A549),GI50 (EKVX),GI50 (IGROV-1),GI50 (K562),GI50 (MCF7),GI50 (MDA-MB-231),GI50 (NCI-H226),GI50 (NCI-H23),GI50 (NCI-H522),GI50 (RPMI-8226),GI50 (SK-OV-3),GI50 (SR),GI50 (SW-620),GI50 (UACC-62),GI50 (MDA-N),GI50 (HOP-92),GI50 (Malme-3M)
O=c1c2nc[nH]c2n(-c2ccccc2)c(=S)n1-c1ccccc1,> 100 µM (inactive),> 100 µM (inactive),> 100 µM (inactive),> 100 µM (inactive),> 100 µM (inactive),> 100 µM (inactive),> 100 µM (inactive),> 100 µM (inactive),> 100 µM (inactive),> 100 µM (inactive),> 100 µM (inactive),> 100 µM (inactive),> 100 µM (inactive),> 100 µM (inactive),> 100 µM (inactive),,,
CCOC(=O)C(NC(=O)Nc1ccc(Cl)c(Cl)c1)C(F)(F)F (stereo unspecified),> 100 µM (inactive),> 100 µM (inactive),77.1 µM (inactive),> 100 µM (inactive),92.5 µM (inactive),,,,> 100 µM (inactive),,> 100 µM (inactive),> 100 µM (inactive),> 100 µM (inactive),> 100 µM (inactive),,> 100 µM (inactive),,
CCOC(=O)c1sc2c(c1OC(=O)c1ccccc1)c(=O)n(-c1ccccc1)c(=S)n2-c1ccccc1,15.9 µM (inactive),26.1 µM (inactive),63.8 µM (inactive),19.8 µM (inactive),28.4 µM (inactive),29.4 µM (inactive),28.5 µM (inactive),> 100 µM (inactive),21 µM (inactive),23.6 µM (inactive),40.2 µM (inactive),38.2 µM (inactive),,44.6 µM (inactive),23.7 µM (inactive),,25.7 µM (inactive),21.7 µM (inactive)
CCOCCOCCOCc1nc(C#N)c(N)o1,> 100 µM (inactive),> 100 µM (inactive),> 100 µM (inactive),> 100 µM (inactive),> 100 µM (inactive),> 100 µM (inactive),> 100 µM (inactive),> 100 µM (inactive),> 100 µM (inactive),93.1 µM (inactive),> 100 µM (inactive),> 100 µM (inactive),> 100 µM (inactive),> 100 µM (inactive),> 100 µM (inactive),,,
Cc1cc(S(=O)(=O)Nc2n[nH]c(Nc3ccccc3)n2)c(S)cc1Cl,> 10 µM (inactive),> 10 µM (inactive),> 10 µM (inactive),> 10 µM (inactive),> 10 µM (inactive),> 10 µM (inactive),> 10 µM (inactive),> 10 µM (inactive),> 10 µM (inactive),> 10 µM (inactive),> 10 µM (inactive),> 10 µM (inactive),,> 10 µM (inactive),> 10 µM (inactive),,,> 10 µM (inactive)
CNC(=O)Oc1ccc(C(=S)Nc2ccc(Br)cc2)cc1,21.8 µM (inactive),21.9 µM (inactive),8.05 µM (inactive),0.783 µM (active),14.1 µM (inactive),18.3 µM (inactive),,,15.7 µM (inactive),11.4 µM (inactive),23 µM (inactive),44 µM (inactive),13.6 µM (inactive),23.1 µM (inactive),12.9 µM (inactive),22.2 µM (inactive),,31.3 µM (inactive)
C/C(=C\c1ccc(Cl)c(Cl)c1)[N+](=O)[O-],0.579 µM (active),1.89 µM (inactive),2.08 µM (inactive),2.16 µM (inactive),1.55 µM (inactive),0.433 µM (active),2.1 µM (inactive),2.46 µM (inactive),2.26 µM (inactive),1.63 µM (inactive),,,0.685 µM (active),0.986 µM (active),2.38 µM (inactive),,,2.08 µM (inactive)

# Source: ChEMBL document CHEMBL1201862, “PubChem BioAssay data set” (2004)
